PMC7413516, “Antidepressant-like activity and safety profile evaluation of 1H-imidazo[2,1-f]purine-2,4(3H,8H)-dione derivatives as 5-HT1A receptor partial agonists” (PLoS ONE, 2020)
Read-outs that look alike come from different tables or passages of the source.

Test: Pharmacokinetic study in mice, plasma and brain structures, LC/MS/MS
Assay type: in vivo, Swiss albino mice
Conditions: Swiss albino, mouse, ip, 0.625 mg/kg i.p.
Description: Blood samples from the Swiss albino mice were collected at 0 (pre-dose), 5, 15, 30, 60, 120, 240 and 480 min after a compound administration. The blood samples and brain structures were collected under general anesthesia induced by i.p. injection of 50 mg/kg ketamine plus 8 mg/kg xylazine. The blood samples were taken into heparinized tubes, immediately centrifuged at 1000 × g for 10 min, and plasma was collected. The plasma samples and brain structures were immediately frozen at -30°C and -80°C, respectively.
The plasma and tissue sample pretreatment procedure involved acetonitrile precipitation. A 5 μL aliquot of the IS working solution (100 ng/mL) was added to 50 μL of the collected mouse plasma sample, which was then vortex-mixed for 10 seconds. Thereafter, 200 μL of acetonitrile was added, vortexed during 20 min, and then centrifuged (1000 × g, 10 min). The supernatant (100 μL) was then transferred to insert placed in an autosampler vial, and a 10 μL volume of this was injected onto the HPLC column. Tissue samples were thawed before use, and whole hippocampus, striatum and frontal cortex were weighted and placed in a glass mortar and pestle tissue grinder and homogenized with an appropriate amount of phosphate buffer (pH 7.4) in 1:5 ratio. Afterward, 50 μL of tissue homogenates were transferred to new Eppendorf tubes and spiked with 5 μL of the internal standard working solution. All samples were stored on ice during the preparation process. This was followed by procedures like those described above.
The LC/ESI-MS/MS experiments were performed on an Applied Biosystems/MDS Sciex (Concord, Ontario, Canada) API 2000 triple quadrupole mass spectrometer equipped with an electrospray (ESI) ionization interface. This instrument was coupled to an Agilent 1100 (Agilent Technologies, Waldbronn, Germany) LC system. Data acquisition and processing were accomplished using Sciex Analyst 1.4.2 data collection and integration software.
An XBridge C18 (2.1 x 30 mm, 3.5 μm) analytical column (Waters, Milford, Massachusetts, USA) was used for compound separation. The temperatures of the column thermostat and the autosampler were set at 25°C and 10°C, respectively. The mobile phase consisted of a mixture of acetonitrile with addition of 0.1% formic acid (solvent A) and water with addition of 0.1% formic acid (solvent B) and was set at a flow rate of 0.6 mL/min. Starting amount of solvent A is 10%, isocratic elution from 0 to 3 min, and then gradient up to 90% of solvent A, and maintained to 10 min, and then gradient down to 10% of solvent A, and maintained to 15 min.
The ion source parameters were as follows: ion spray voltage: 5500 V; nebulizer gas (gas 1): 20 psi; turbo gas (gas 2): 25 psi; temperature of the heated nebulizer: 400°C; curtain gas: 40 psi; collision gas: 6 psi. Mass spectra were acquired by SRM with precursor/predominant product ion transitions for each analyte. The mass spectral Q1→Q3 transitions monitored for AZ-853, AZ-861 and for IS (nebivolol), were m/z 453.9→235.1; 504.3→285.1 and 406.2→151.1, respectively. The peak widths of precursor and product ions were set to 0.7 full width half-height. Quantification was done via peak area ratio.
Pharmacokinetic parameters were calculated by a non-compartmental approach from the average concentration values, using Phoenix WinNonlin software (Certara, Princeton, NJ 08540 USA). First order elimination rate constant (λz) was calculated by linear regression of time versus log concentration. Next, the area under the mean serum and tissue concentration versus time curve (AUC0→t) was estimated using the log-linear trapezoidal rule (1), where Ci is the plasma concentration measured at t1.
AUC0→t=∑i=1n((Ci+Ci+1)/2)∙(ti+1−ti). (1)
Area under the first-moment curve (AUMC0→t) was estimated by calculation of the total area under the first-moment curve using the Eq (2), where Ci is the plasma concentration measured at t1. AUMC0→t=∑i=1n((ti∙Ci+ti+1∙Ci+1)/2)∙(ti+1−ti). […]

[1] = hippocampus, 0.625 mg/kg, read-out: Concentration, hippocampus (individual animals)
[2] = hippocampus, 0.625 mg/kg, read-out: Concentration, hippocampus (Mean)
[3] = plasma, 0.625 mg/kg, read-out: Concentration, plasma (Mean)
[4] = plasma, 0.625 mg/kg, read-out: Concentration, plasma (individual animals)
[5] = striatum, 0.625 mg/kg, read-out: Concentration, striatum (Mean)
[6] = striatum, 0.625 mg/kg, read-out: Concentration, striatum (individual animals)

Cn1c(=O)c2c(nc3n(CCCCN4CCN(c5ccccc5F)CC4)ccn23)n(C)c1=O [AZ-853, 8-(4-(4-(2-fluorophenyl)piperazin-1-yl)butyl)-1,3-dimethyl-1H-imidazo[2,1-f]purine-2,4(3H,8H)-dione]
concentration at 5 min [1]: 205 ng/mL
concentration at 15 min [2]: 271 ng/mL
concentration at 15 min [1]: 228 ng/mL
concentration at 30 min [2]: 125 ng/mL
concentration at 30 min [1]: 125 ng/mL
concentration at 60 min [2]: 44.3 ng/mL
concentration at 60 min [1]: 38.9 ng/mL
concentration at 120 min [2]: 12.6 ng/mL
concentration at 120 min [1]: 14.1 ng/mL
concentration at 240 min [2]: 8.83 ng/mL
concentration at 240 min [1]: 9.85 ng/mL
concentration at 480 min [2]: 2.07 ng/mL
Cmax (hippocampus, 0.625 mg/kg, read-out: Cmax, hippocampus): 272 ng/g
Tmax (hippocampus, 0.625 mg/kg, read-out: tmax, hippocampus (converted)): 15 min
CL/F (plasma): 570 mL/min/kg
AUC(0-t) (plasma, read-out: AUC0→t, plasma (converted)): 17.7 ng·h/mL
MRT (plasma, read-out: MRT, plasma (converted)): 85.8 min
concentration at 5 min [3]: 23.1 ng/mL
concentration at 5 min [4]: 25.4 ng/mL
concentration at 15 min [3]: 13.4 ng/mL
concentration at 15 min [4]: 12.2 ng/mL
concentration at 30 min [3]: 7.76 ng/mL
concentration at 30 min [4]: 9.11 ng/mL
concentration at 60 min [3]: 1.78 ng/mL
concentration at 120 min [3]: 4.08 ng/mL
concentration at 120 min [4]: 3.22 ng/mL
concentration at 240 min [3]: 0.38 ng/mL
concentration at 480 min [3]: 0.29 ng/mL
concentration at 480 min [4]: 0.25 ng/mL
Vd/F (plasma, 0.625 mg/kg, plasma, read-out: Vd/F): > 67 L/kg
Cmax (plasma, 0.625 mg/kg, read-out: Cmax, plasma): 23.1 ± 16 ng/mL
Tmax (plasma, 0.625 mg/kg, read-out: tmax, plasma): ≤ 5 min
Kp (striatum, ratio of AUC values, read-out: Brain structure-to-plasma concentration ratio, striatum (S/P)): 19.9
AUC(0-t) (striatum, read-out: AUC0→t, striatum (converted)): 352 ng·h/mL
MRT (striatum, read-out: MRT, striatum (converted)): 56.3 min
concentration at 5 min [5]: 337 ng/mL
concentration at 5 min [6]: 290 ng/mL
concentration at 15 min [5]: 404 ng/mL
concentration at 15 min [6]: 398 ng/mL
concentration at 30 min [5]: 262 ng/mL
concentration at 30 min [6]: 307 ng/mL
concentration at 60 min [5]: 65.5 ng/mL
concentration at 60 min [6]: 78.3 ng/mL
concentration at 120 min [5]: 40.9 ng/mL
concentration at 120 min [6]: 48.7 ng/mL
concentration at 240 min [5]: 5.58 ng/mL
concentration at 480 min [5]: 1.4 ng/mL
Cmax (striatum, 0.625 mg/kg, read-out: Cmax, striatum): 404 ng/g
Tmax (striatum, 0.625 mg/kg, read-out: tmax, striatum (converted)): 15 min
